Measurements: patent US8106055B2, “Substituted amide compounds” (Gruenenthal GmbH, priority 2007, dated 2012)

Molecular target: T1, human bradykinin 1 receptor (B1R) (Homo sapiens, UniProt P46663)
T1 construct: expressed in transfected cells; host or cells: CHO K1 cells
T1 sequence (P46663 1-353): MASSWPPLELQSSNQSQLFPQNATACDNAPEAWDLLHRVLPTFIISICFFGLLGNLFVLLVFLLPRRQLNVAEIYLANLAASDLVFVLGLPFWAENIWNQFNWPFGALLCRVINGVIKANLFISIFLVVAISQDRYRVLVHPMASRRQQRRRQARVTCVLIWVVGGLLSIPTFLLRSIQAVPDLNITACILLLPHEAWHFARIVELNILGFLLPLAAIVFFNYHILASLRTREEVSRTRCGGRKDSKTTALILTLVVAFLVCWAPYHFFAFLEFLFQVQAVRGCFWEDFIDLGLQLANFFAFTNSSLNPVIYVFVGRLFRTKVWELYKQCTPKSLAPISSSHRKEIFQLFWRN
Assay: Functional investigation on the human bradykinin 1 receptor (B1R), Ca2+ FLIPR assay in CHO K1 hB1R cells
Assay type: cell-based
Settings: B1R antagonism human; test substance 10 μM; Ca2+ FLIPR, CHO K1 hB1R cells
How it was run: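 Peak Ca2+-dependent fluorescence in B1R-transfected CHO K1 cells measures antagonism of an EC80 agonist challenge given 10-20 min after compound. Agonist is Lys-Des-Arg9-bradykinin for human, Des-Arg9-bradykinin for rat receptor.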

SMILES	B1R Ant. h [10 μM] % Inhibition [%]
COc1cc(C)c(S(=O)(=O)N2CCC(CCOCC(=O)NCC3CCC(C(c4ccc(Cl)cc4)N(C)C)CC3)CC2)c(C)c1C (stereo not drawn) [Example 499]	25
COc1ccc(S(=O)(=O)N2CCCCC2COCC(=O)NCCC2CCC(C(c3ccc(F)cc3)N(C)C)CC2)c(OC)c1 (stereo not drawn) [Example 500]	3
Cc1cc(C)c(S(=O)(=O)N2CCC(OCC(=O)NCCC3CCC(C(c4ccc(F)cc4)N(C)C)CC3)C2)c(C)c1 (stereo not drawn) [Example 501]	77
CN(C)C(c1ccc(F)cc1)C1CCC(NC(=O)COCCN2CCN(S(=O)(=O)c3ccccc3)CC2)CC1 (stereo not drawn) [Example 502]	−3
COc1cc(C)c(S(=O)(=O)N2CCC(OCC(=O)NCC3CCC(C(CCc4ccccc4)N(C)C)CC3)C2)c(C)c1C (stereo not drawn) [Example 503]	105
COc1cc(C)c(S(=O)(=O)N(CCOCC(=O)NC2CCC(C(c3ccc(F)cc3)N(C)C)CC2)Cc2ccccc2)c(C)c1 (stereo not drawn) [Example 504]	69
Cc1cc(C)c(S(=O)(=O)N2CCC(OCC(=O)NCCC3CCC(C(c4ccc(Cl)cc4)N(C)C)CC3)C2)c(C)c1 (stereo not drawn) [Example 506]	83
CN(C)C(c1ccccc1)C1CCC(CNC(=O)COCCC2CCN(S(=O)(=O)c3ccccc3)CC2)CC1 (stereo not drawn) [Example 507]	−19
COc1ccc(S(=O)(=O)N(C)CCOCC(=O)NCC2CCC(C(c3ccc(F)cc3)N(C)C)CC2)cc1 (stereo not drawn) [Example 508]	46
COc1cc(C)c(S(=O)(=O)N2CCC(OCC(=O)NCCC3CCC(C(c4ccc(F)cc4)N(C)C)CC3)C2)c(C)c1 (stereo not drawn) [Example 509]	104
COc1cc(C)c(S(=O)(=O)N2CCC(CCOCC(=O)NCCC3CCC(C(c4ccc(F)cc4)N(C)C)CC3)CC2)c(C)c1C (stereo not drawn) [Example 510]	15
COc1ccc(S(=O)(=O)N2CCCC2COCC(=O)NCC2CCC(C(c3ccc(F)cc3)N(C)C)CC2)cc1 (stereo not drawn) [Example 511]	38
COc1ccc(S(=O)(=O)N2CCC(OCC(=O)NC3CCC(C(c4ccc(F)cc4)N(C)C)CC3)C2)cc1OC (stereo not drawn) [Example 512]	−4
CN(C)C(CCc1ccccc1)C1CCC(CNC(=O)COCCN(C)S(=O)(=O)c2ccc(Cl)cc2Cl)CC1 (stereo not drawn) [Example 513]	100
COc1ccc(S(=O)(=O)N(C)CCOCC(=O)NCC2CCC(C(c3ccc(F)cc3)N(C)C)CC2)cc1OC (stereo not drawn) [Example 514]	−6
CN(C)C(CCc1ccccc1)C1CCC(CNC(=O)COCCN(C)S(=O)(=O)c2c(Cl)cc(Cl)cc2Cl)CC1 (stereo not drawn) [Example 515]	101
CN(C)C(c1ccc(F)cc1)C1CCC(CNC(=O)COC2CCN(S(=O)(=O)c3ccc(Cl)cc3)C2)CC1 (stereo not drawn) [Example 517]	−13
CN(C)C(c1ccc(F)cc1)C1CCC(CCNC(=O)COC2CCN(S(=O)(=O)c3ccc(F)cc3)C2)CC1 (stereo not drawn) [Example 518]	−2
COc1ccc(S(=O)(=O)N(C)CCOCC(=O)NCCC2CCC(C(c3ccc(F)cc3)N(C)C)CC2)cc1 (stereo not drawn) [Example 519]	38
CN(C)C(c1ccc(F)cc1)C1CCC(CCNC(=O)COC2CCCN(S(=O)(=O)c3ccccc3)C2)CC1 (stereo not drawn) [Example 520]	−4

SMILES	B1R Ant. h [10 μM] % Inhibition [%]
COc1cc(C)c(S(=O)(=O)N2CCC(CCOCC(=O)NCC3CCC(C(CCc4ccccc4)N(C)C)CC3)CC2)c(C)c1C (stereo not drawn) [Example 521]	66
CN(C)C(c1ccc(F)cc1)C1CCC(CNC(=O)COC2CCN(S(=O)(=O)c3ccc(F)cc3)C2)CC1 (stereo not drawn) [Example 522]	1
COc1cc(C)c(S(=O)(=O)N(CCOCC(=O)NC2CCC(C(c3ccc(F)cc3)N(C)C)CC2)Cc2ccccc2)c(C)c1C (stereo not drawn) [Example 523]	50
COc1ccc(S(=O)(=O)N2CCCCC2COCC(=O)NC2CCC(C(c3ccc(F)cc3)N(C)C)CC2)c(OC)c1 (stereo not drawn) [Example 524]	−11
COc1cc(C)c(S(=O)(=O)N(C)CCOCC(=O)NCC2CCC(C(CCc3ccccc3)N(C)C)CC2)c(C)c1 (stereo not drawn) [Example 525]	99
CN(C)C(CCc1ccccc1)C1CCC(CNC(=O)COCCN2CCN(S(=O)(=O)c3ccccc3)CC2)CC1 (stereo not drawn) [Example 526]	10
COc1cc(C)c(S(=O)(=O)N2CCC(OCC(=O)NCC3CCC(C(c4ccc(F)cc4)N(C)C)CC3)CC2)c(C)c1C (stereo not drawn) [Example 527]	57
COc1cc(C)c(S(=O)(=O)N2CCN(CCOCC(=O)NCC3CCC(C(CCc4ccccc4)N(C)C)CC3)CC2)c(C)c1C (stereo not drawn) [Example 528]	98
CN(C)C(c1ccc(F)cc1)C1CCC(CCNC(=O)COC2CCN(S(=O)(=O)c3ccccc3)C2)CC1 (stereo not drawn) [Example 530]	−18
CN(C)C(c1ccc(Cl)cc1)C1CCC(CCNC(=O)COCCC2CCN(S(=O)(=O)c3ccccc3)CC2)CC1 (stereo not drawn) [Example 531]	2
CN(C)C(c1ccc(F)cc1)C1CCC(CNC(=O)COC2CCN(S(=O)(=O)c3ccccc3)C2)CC1 (stereo not drawn) [Example 532]	5
CN(C)C(CCc1ccccc1)C1CCC(CNC(=O)COCCN(Cc2ccccc2)S(=O)(=O)c2ccccc2)CC1 (stereo not drawn) [Example 533]	35
COc1ccc(S(=O)(=O)N2CCCCC2CCOCC(=O)NCC2CCC(C(CCc3ccccc3)N(C)C)CC2)cc1 (stereo not drawn) [Example 535]	77
CCN(CCOCC(=O)NCC1CCC(C(CCc2ccccc2)N(C)C)CC1)S(=O)(=O)c1c(C)cc(OC)c(C)c1C (stereo not drawn) [Example 536]	105
Cc1ccc(S(=O)(=O)N2CCC(OCC(=O)NCC3CCC(C(CCc4ccccc4)N(C)C)CC3)C2)cc1 (stereo not drawn) [Example 538]	7
CN(C)C(CCc1ccccc1)C1CCC(CNC(=O)COCCN(C)S(=O)(=O)c2ccc(F)cc2)CC1 (stereo not drawn) [Example 539]	27
COc1ccc(S(=O)(=O)N2CCCCC2COCC(=O)NCCC2CCC(C(c3ccc(Cl)cc3)N(C)C)CC2)cc1OC (stereo not drawn) [Example 540]	−19
COc1cc(C)c(S(=O)(=O)N2CCC(OCC(=O)NCC3CCC(C(c4ccc(F)cc4)N(C)C)CC3)C2)c(C)c1 (stereo not drawn) [Example 541]	100
COc1cc(C)c(S(=O)(=O)N(CCOCC(=O)NCC2CCC(C(CCc3ccccc3)N(C)C)CC2)Cc2ccccc2)c(C)c1 (stereo not drawn) [Example 542]	103
